Experimental findings from ChEMBL document CHEMBL3507680, “University of Dundee, Gates Library screen for HepG2 cell viability” are described below.

The nature of this series: Human HepG2 cell viability assay in 384 well format. The class given is toxicity, cell-based. Also noted: dose 125 nL, time 70.5 hour; concentration not given beside the values. To be noted: HepG2 cells, read-out: Inhibition.
As for `CN(CC1CCOC1)S(=O)(=O)c1cccc(C(=O)N2CCCCCC2)c1` (stereo not given), the cytotoxicity at 70.5 h is -14.8%.
Then `Cc1cc(-c2cnc(NCc3ccncc3)nc2C(C)C)on1`, with 2.62%.
As for `Cc1nc(N2CCN(C)CC2)ncc1C(=O)N1CCN(C)CC1`, the figure is -4.76%; as for `CCC(=O)N1CCN(C(=O)c2cn3ccsc3n2)[C@H]2CS(=O)(=O)C[C@H]21`, -13.8%; as for `CS(=O)(=O)NC1CCN(C(=O)NCC2CCCO2)CC1` (stereo not given), -10.3%.
Turning to `CC(C)N1CC[C@@H]2[C@H](COCC3CC3)CN(C)C(=O)[C@@H]2CC1`, the cytotoxicity at 70.5 h is 4.19%.
Then `CC(CNC(=O)c1ccc(F)cc1I)N1CCCC1` (stereo not given), with 22%; and `CCOCC1CN(C(=O)N2CCCC2)Cc2cnn(CC)c21` (stereo not given), with -4.21%; and `CCc1nc(C2CCCN2Cc2nc(CCOC)no2)no1` (stereo not given), with -9.31%.
As for `COc1ccc(C(C)N(C)Cc2nc3c(cnn3C)c(=O)[nH]2)cc1` (stereo not given), the figure is -8.42%; as for `COCCNC(=O)NCc1cc(-c2ccncc2)n(C2CCCC2)n1`, -13.6%.
Regarding `CNC(=O)N1CCC2(CC1)CN(C)Cc1cc(F)ccc12`, the cytotoxicity at 70.5 h came to 2.33%.
Turning to `Cc1cc(C)n(CCNCc2cc(-c3ccccc3)c[nH]c2=O)n1`, the cytotoxicity at 70.5 h was -9.26%.
Consider `Cc1cnn(C2CCCN(C(=O)c3cnc4ccccc4n3)C2)c1` (stereo not given), for which the cytotoxicity at 70.5 h is -7.22%.
For `CCOCCCC(=O)Nc1[nH]nc(-c2ccncc2)c1C`, the cytotoxicity at 70.5 h is -9.37%.
For the compound `Cn1cc(CCCN2CCN(Cc3cccc(O)c3)CC2)cn1`, the cytotoxicity at 70.5 h is -3.39%.
As for `Cn1cc(-c2csc(N3CCCCCC3)n2)cn1`, the figure is -1.01%; as for `Cc1ncc(-c2ccccn2)c(CCNC(=O)CCC2CCCO2)n1` (stereo not given), 3.67%.
Then `Cc1cccc(N2CCC(NC(C)c3cccs3)CC2)n1` (stereo not given), with 10.3%; and `Cn1ncc2c1CN(Cc1ccccc1F)CC2COCC1CC1` (stereo not given), with 23.7%; and `CN(C)c1ccc2c(c1)CN(C(=O)c1cnccn1)C2c1cnco1` (stereo not given), with 22.8%.
For the compound `Cc1cccc(CO[C@@H]2CC[C@H]3[C@H]2OCCN3Cc2ccoc2)n1`, the cytotoxicity at 70.5 h was -11.3%.
As for `CCCc1nccn1-c1cccc(C(C)O)c1` (stereo not given), the figure is -2.3%; as for `c1c2c(nn1CC1CCOCC1)C(CNC1CCOCC1)OCC2` (stereo not given), 7.06%; as for `CCCNC1(c2ccc(Cl)cc2)CCOCC1`, 6.67%.
Take `Cc1ccc(N(CCC#N)C(=O)CN2CCCC2c2ccsc2)cc1` (stereo not given): the cytotoxicity at 70.5 h worked out at 0.989%.
As for `CCn1c(N)nc2cc(C(=O)N3CCN(c4nccs4)CC3)cnc21`, the figure is -6.84%.
Then `CC(C)n1cc(C(=O)N2CCC(n3cc(C(C)(C)C)nn3)CC2)cn1`, with -12.1%.
As for `COC1(CNC(=O)CCCc2ccccc2)CCSC1` (stereo not given), the figure is -0.238%; as for `Cc1ncsc1C(=O)N1CCc2nnc(C3CCCCN3C)n2CC1` (stereo not given), -2.05%; as for `CN(CCSc1nncn1CC(F)(F)F)c1ccccc1`, 1.22%.
As for `CCOCCOc1ccc(S(=O)(=O)N2CCc3c(nc[nH]c3=O)C2)cc1`, the cytotoxicity at 70.5 h is 1.59%.
`Cc1ccc(N(CCC#N)C(=O)CN2CCCC2c2cccs2)cc1` (stereo not given): the cytotoxicity at 70.5 h is -2.42%.
On to `Cn1cc(N2CC3(CCN(CC4CCOCC4)CC3)OCC2=O)cn1`, for which the cytotoxicity at 70.5 h was -17.2%.
On to `CCN(C(=O)COC)C(c1cccnc1)c1cc(C)cc(C)c1` (stereo not given), for which the cytotoxicity at 70.5 h stood at 13.8%.
Then `Cc1ccc(CNC(=O)NC(C)Cn2cccn2)cn1` (stereo not given), with -9.6%; and `CCCS(=O)(=O)NCC1CCOc2ccccc2C1` (stereo not given), with -1.69%.
Then `CC(=O)Nc1ncc(S(=O)(=O)Nc2ccc(C)cc2)s1`, with -1.08%.
As for `CCN1CCC(NC(=O)CN2CCCC(NS(C)(=O)=O)C2)CC1` (stereo not given), the figure is -10.1%; as for `CCNc1ncc2c(n1)CN(c1ccc(CC)cc1)C2=O`, -8.79%.
Consider `Cc1noc(C)c1CN1CC[C@H](OCC2CC2)[C@@H](Cc2ccccc2)C1`, for which the cytotoxicity at 70.5 h was found to be 3.46%.
Regarding `CC(=O)Nc1ccc2nc(CN(C)Cc3snnc3C)ccc2c1`, the cytotoxicity at 70.5 h is -9.42%.
Then `Cc1cc(S(C)(=O)=O)c(C)c(S(=O)(=O)N2CCCCCC2)c1`, with -7.91%; and `CCN(CC)CCCNc1nc(C)nc2c1CCN(C)C2`, with -1.66%.
In the case of `Cc1nccc(N2CCC(=O)N(Cc3ccc(F)cc3)C(C(C)C)C2)n1` (stereo not given), the cytotoxicity at 70.5 h was -2.7%.
Then `COc1cccc2c1ccn2CC(=O)Nc1nc[nH]n1`, with -11.8%; and `COc1cccc2sc(OC3CN(C(=O)C4=COCCO4)C3)nc12`, with -8.14%.
Then `CC(C)NC(=O)Nc1ccc(CS(=O)(=O)C(C)(C)C)cc1`, with -12.3%; and `CC(C)n1c(=O)c2sccc2n(CC(=O)Nc2cccc(Cl)c2)c1=O`, with -12.8%; and `Cc1csc(C2CCCN(C(=O)c3cnn4ccc(C)nc34)C2)n1` (stereo not given), with -8.34%.
As for `Cc1c[nH]nc1C1CCCCN1C(=O)CC1(O)CCCCC1` (stereo not given), the figure is -8.79%; as for `O=C1CCNc2ccc(F)cc2CN1Cc1ccco1`, 2.21%; as for `CC(=O)Nc1nc2c(s1)C1(CCCC1)Nc1ccccc1S2`, -3.55%.
In the case of `COc1cccc(CCC(=O)N2CCCC(c3nncn3C)C2)c1` (stereo not given), the cytotoxicity at 70.5 h was -7.27%.
Then `Cc1ccccc1CN(Cc1ccccn1)C(=O)CN(C)C(C)C`, with 2.63%; and `Cn1cc2c(n1)C(CNC(=O)Cc1ccsc1)OCC2` (stereo not given), with -6.77%.
As for `CCc1nnsc1C(=O)NCc1nnc2n1CCCCC2`, the figure is -3.94%; as for `Cc1cc(-n2cnnn2)n2ncnc2n1`, 3.71%.
Then `c1cc(CN2C[C@@H]3OCCN(CC4CCCO4)[C@@H]3C2)cs1` (stereo not given in full), with -7.25%.
As to `COc1ccc(C(=O)n2nc(C)c(C)c2C)cc1`, the cytotoxicity at 70.5 h was -2.07%.
`CO[C@@H]1CCN(c2ncccn2)[C@H]1Cc1ccccc1`: the cytotoxicity at 70.5 h was 1.42%.
In the case of `Cc1nc[nH]c1CN1CCN(C2CCOCC2)CC(C(N)=O)C1` (stereo not given), the cytotoxicity at 70.5 h is -9.69%.
Then `CC(NC(=O)c1cccs1)C(=O)NCc1ccccn1` (stereo not given), with -2.68%; and `Cc1n[nH]c(C)c1NC(=O)CN1CCCC1c1noc(C2CC2)n1` (stereo not given), with -18.5%; and `COc1ncccc1NC(=O)N1CCC(CN2CCOCC2)CC1`, with -6.27%.
Consider `c1ccc2c(c1)CCN(c1ncnc3sc4c(c13)CCNC4)C2`, for which the cytotoxicity at 70.5 h was -2.21%.
Then `Cc1noc(-c2ccnc(N3CCCN(C4CCOCC4)CC3)c2)n1`, with -3.75%.
As for `CC(C)(C)C(=O)N1CCCC1c1cc(CO)[nH]n1` (stereo not given), the figure is -1.34%; as for `Cc1ccc(CN2C(=O)OCC2CO)c2ccccc12` (stereo not given), -6.41%.
Consider `CCN1C(=O)CCCC12CCCN(C(=O)c1conc1C)C2` (stereo not given), for which the cytotoxicity at 70.5 h was -12.9%.
Then `Cc1cc(C(=O)OCC2CCCN2C(N)=O)c(C)o1` (stereo not given), with -6.63%; and `CC(C)c1csc(C2CCCN(C(=O)c3ccc[nH]3)C2)n1` (stereo not given), with -4.24%; and `Cc1nc(C2CCN(C(=O)c3ccc(=O)n(C)c3)CC2)c2sccn12`, with 2.35%.
For `CC(C)(C)c1cc(C(=O)NCCn2nc3ccccn3c2=O)[nH]n1`, the cytotoxicity at 70.5 h was -4.69%.
Then `COCCN(CCOC)C(=O)Nc1cc(C(F)(F)F)c[nH]c1=O`, with -15.1%; and `CCC1CN(C(=O)NCc2cccnc2-n2cccn2)CCO1` (stereo not given), with -5.61%.
For the compound `CNC(=O)NC(=O)CN1CCN(CC(F)(F)F)CC1(C)C`, the cytotoxicity at 70.5 h is -4.26%.
Then `Cc1ccc2nc(-c3nc4c([nH]3)CC(C)(C)CNC4=O)cn2c1`, with 7.51%.
As for `O=C(c1cnccn1)N1CCN2C[C@H](OCC3CC3)C[C@H]2C1`, the figure is 4.98%.
As for `CCCNCc1cn(Cc2ccccc2)nc1-c1cccnc1`, the figure is -8.99%; as for `CN(C)S(=O)(=O)N1CCCC1CC(=O)c1cccs1` (stereo not given), -9.51%.
As to `Cn1ccnc1CNC(=O)N(CCCO)C1CCc2ccccc21` (stereo not given), the cytotoxicity at 70.5 h was -4.97%.
As to `CCn1c(N)nc2cc(C(=O)N3CCCN(C)CC3)cnc21`, the cytotoxicity at 70.5 h was 3.17%.
As for `CCSc1cc(C(=O)N(Cc2cnn(C)c2)C(C)C)ccn1`, the figure is -11.4%; as for `CCOCC1CN(CCc2ccccc2)Cc2c1cnn2C` (stereo not given), 10.7%; as for `Cc1ccc(S(=O)(=O)N2CC[C@@H]3C[C@H](NC(=O)c4[nH]ncc4Br)[C@@H]32)cc1`, -5.6%.
Then `Cc1ccc(C(C)NC(=O)CSCC(N)=O)cc1` (stereo not given), with -0.981%; and `O=C(c1cc(Cl)ccc1OC1CCN(C2CCCC2)CC1)N1CC(O)C1`, with 11.8%; and `Cn1cc(CN2CC[C@H]3OCC[C@@H](C(=O)N4CCCCO4)[C@@H]3C2)cn1`, with -15.8%.
Then `CCc1nc(C2CCCN2C(=O)CCc2nc(C3CC3)no2)no1` (stereo not given), with -1.64%.
For `O=C(NCCOCC(F)(F)F)c1ccc(-c2ccccc2)[nH]c1=O`, the cytotoxicity at 70.5 h is -7.3%.
With `CC(C)Nc1nc2c(cc1C(=O)N(C)C)CCNCC2`, the cytotoxicity at 70.5 h is -6.7%.
Then `Cc1noc(C2CCCN(C(=O)c3scnc3Cl)C2)n1` (stereo not given), with 13%.
Then `CN1CCN(Cc2nc3ccccc3[nH]2)[C@H]2CS(=O)(=O)C[C@H]21`, with -10.2%; and `Cc1nc(CCCC(=O)Nc2cccc(N3CCNC3=O)c2)cs1`, with 0.608%; and `CC(C)(NC(=O)CCc1ccco1)c1ccc2c(c1)OCCO2`, with -2.91%.
Then `O=C(Cc1cccc(O)c1)NCCNc1nccc(C(F)(F)F)n1`, with -7.29%; and `Cc1cc(NC(=O)CN2CCN(c3nccs3)C(C)C2)no1` (stereo not given), with -8.11%; and `Cc1cnc2c(c1NCc1cccs1)c(=O)n(C)c(=O)n2C`, with -16.9%.
With `CN1CCCc2cc(-c3cncn3CC(=O)NC(C)(C)C)ccc21`, the cytotoxicity at 70.5 h was -16.5%.
